Test results reported in paper PMC9427252, “Study on the Absorption of Arsenic Species in Realgar Based on the Form and Valence” (Evidence-based Complementary and Alternative Medicine : eCAM, 2022).
Where two headings read alike, the source gives them in different places.

Tests used:
Caco-2 cells = details: A to B, realgar artificial intestinal dissolved solution
[1] = tested on: duodenum, jejunum, and ileum
[2] = rat plasma, oral 0.1 g/kg realgar

Question: Which “MRT(0-∞)” value (rat, in vivo, po, 0.1 g/kg) does the source give for `O[As](O)O` [AsIII, Arsenite] here?
Answer: Its value is 9.649 h.

Question: Which results are given for `O=[As](O)(O)O` [AsV, Arsenate]?
Answer: AUC(0-24) [2]: 47.310 ng·h/mL; AUC(0-∞) [2]: 47.687 ng·h/mL; Cmax [2]: 0.021626 ng/mL; MRT(0-∞) [2]: 2.790 h; Tmax [2]: 0.393 h; t1/2 [2]: 1.775 h; Cumulative transport amount (Caco-2 cells; 30 min): 0.23 ± 0.07 ng; Cumulative transport amount (Caco-2 cells; 60 min): 0.41 ± 0.06 ng; Cumulative transport amount (Caco-2 cells; 90 min): 1.01 ± 0.16 ng; Cumulative transport amount (Caco-2 cells; 120 min): 0.84 ± 0.02 ng; Cumulative transport amount (Caco-2 cells; 180 min): 1.20 ± 0.15 ng; Cout/Cin ([1]; duodenum and jejunum): > 1; Cout/Cin ([1]; ileum): < 1; Cout/Cin ([1]; realgar intestinal perfusate, duodenum, time 15): 3.14 ± 0.81; Cout/Cin ([1]; realgar intestinal perfusate, duodenum, time 30): 3.16 ± 0.91; Cout/Cin ([1]; realgar intestinal perfusate, duodenum, time 45): 3.01 ± 0.96; Cout/Cin ([1]; realgar intestinal perfusate, duodenum, time 60): 3.20 ± 1.04; Cout/Cin ([1]; realgar intestinal perfusate, duodenum, time 75): 3.17 ± 0.86; Cout/Cin ([1]; realgar intestinal perfusate, ileum, time 15): 0.78 ± 0.11; Cout/Cin ([1]; realgar intestinal perfusate, ileum, time 30): 0.77 ± 0.10; Cout/Cin ([1]; realgar intestinal perfusate, ileum, time 45): 0.76 ± 0.12; Cout/Cin ([1]; realgar intestinal perfusate, ileum, time 60): 0.78 ± 0.11; Cout/Cin ([1]; realgar intestinal perfusate, ileum, time 75): 0.80 ± 0.13; Cout/Cin ([1]; realgar intestinal perfusate, jejunum, time 15): 1.54 ± 0.46; Cout/Cin ([1]; realgar intestinal perfusate, jejunum, time 30): 1.46 ± 0.39; Cout/Cin ([1]; realgar intestinal perfusate, jejunum, time 45): 1.50 ± 0.28; Cout/Cin ([1]; realgar intestinal perfusate, jejunum, time 60): 1.34 ± 0.25; Cout/Cin ([1]; realgar intestinal perfusate, jejunum, time 75): 1.28 ± 0.24
